Test results: patent publication US8575153B2 (Kowa Company, Ltd., priority 2008, dated 2013)
Where a name gives a salt, the structure may show the parent alone.

Molecular target: Recombinant human JAK3 enzyme (JAK3 kinase region; Ala795-Ser1124) (Homo sapiens, UniProt P52333)
Assay: JAK3 Kinase Assay (Kinase-Glo luminescent, ATP consumption)
Settings: for inhibition at 0.1 µM / inhibition at 1 µM: read-out: Inhibition rate (%) of JAK3 kinase activity
Description: Recombinant human JAK3 enzyme (JAK3 kinase region; Ala795-Ser1124) was purchased from Carna Biosciences, Inc.
The reaction was conducted in a kinase buffer (reaction volume: a total of 50 μl) containing 8 mM MOPS (pH 7.0), 0.2 mM EDTA, a test compound solution prepared to each concentration and 0.5 μg/ml JAK3 enzyme using a 96-well polystyrene plate (clear-bottom white-wall). […] After incubating them at room temperature for 2 hours, 50 μl of Kinase-Glo Luminescent Kinase Assay reagent (Promega) was added to each well, and further incubated at room temperature for 10 minutes. Using a chemiluminescence microplate reader MicroLumat LB96P (Berthold), chemiluminescence intensity was measured to quantitate the amount of ATP remaining after reaction. From the amount of ATP consumed in the phosphorylation reaction, the inhibition rate (%) of JAK3 kinase activity was determined.

Chain of Recombinant human JAK3 enzyme (JAK3 kinase region; Ala795-Ser1124) (P52333 795-1124): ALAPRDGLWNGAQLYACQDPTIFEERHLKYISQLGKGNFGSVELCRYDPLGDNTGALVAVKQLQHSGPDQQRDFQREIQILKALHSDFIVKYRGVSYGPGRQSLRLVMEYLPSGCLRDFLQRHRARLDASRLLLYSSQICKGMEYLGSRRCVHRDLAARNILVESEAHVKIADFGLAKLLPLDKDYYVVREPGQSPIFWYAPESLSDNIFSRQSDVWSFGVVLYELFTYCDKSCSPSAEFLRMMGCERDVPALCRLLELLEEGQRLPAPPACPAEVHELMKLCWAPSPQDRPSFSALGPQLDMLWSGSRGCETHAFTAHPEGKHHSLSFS

Compound	inhibition at 0.1 µM	other results
NC(=O)c1cnc(Nc2ccc(NC(=O)C3CCNCC3)cc2)cc1NCc1cc(F)cc(F)c1 [Example 315, 4-[(3,5-difluorobenzyl)amino]-6-({4-[(piperidin-4-ylcarbonyl)amino]phenyl}amino)pyridine-3-carboxyamide hydrochloride]	60%	
COc1ccc(F)cc1CNc1cc(Nc2ccc(N3CCOCC3)cc2)ncc1C(N)=O [Example 99, 4-[(5-fluoro-2-methoxybenzyl)amino]-6-[(4-morpholinophenyl)amino]pyridine-3-carboxyamide]	80%	
CC1CCCCC1Nc1cc(Nc2ccc(N3CCOCC3)cc2)ncc1C(N)=O (stereo not drawn) [Example 349, 4-[(2-methylcyclohexyl)amino]-6-[(4-morpholinophenyl)amino]pyridine-3-carboxyamide]		inhibition at 1 µM: 90%
NC(=O)c1cnc(Nc2ccc(N3CCC(CCO)CC3)cc2)cc1NCc1cc(F)cc(F)c1 [Example 179]	78%	
Cc1cccc(CNc2cc(Nc3ccc(N4CCOCC4)cc3)ncc2C(N)=O)c1 [Example 77, 4-[(3-methylbenzyl)amino]-6-[(4-morpholinophenyl)amino]pyridine-3-carboxyamide]	55%	
CN1CCC(Oc2ccc(Nc3cc(NCc4ccccc4)c(C(N)=O)cn3)cc2)CC1 [Example 52, 4-(benzylamino)-6-({4-[(1-methylpiperidin-4-yl)oxy]phenyl}amino)pyridine-3-carboxyamide]	72%	
CN1CCCN(c2ccc(Nc3cc(NCc4ccccc4)c(C(N)=O)cn3)cc2)CC1 [Example 244, 4-(benzylamino)-6-{[4-(4-methyl-1,4-diazepan-1-yl)phenyl]amino}pyridine-3-carboxyamide]	59%	
NC(=O)c1cnc(Nc2ccc(N3CCOCC3)cc2)cc1NCC1CC1 [Example 362, 4-[(cyclopropylmethyl)amino]-6-[(4-morpholinophenyl)amino]pyridine-3-carboxyamide]		inhibition at 1 µM: 40%
NC(=O)c1cnc(Nc2ccc(N3CCOCC3)cc2)cc1NCc1cccc(Cl)c1 [Example 81, 4-[(3-chlorobenzyl)amino]-6-[(4-morpholinophenyl)amino]pyridine-3-carboxyamide]	72%	
NC(=O)c1cnc(-c2c[nH]c3ncccc23)cc1NCc1cc(F)cc(F)c1 [Example 371, 4-[(3,5-difluorobenzyl)amino]-6-(1H-pyrrolo[2,3-b]pyridin-3-yl)pyridine-3-carboxyamide]		inhibition at 1 µM: 42%
Cc1ccccc1CNc1cc(Nc2ccc(N3CCOCC3)cc2)ncc1C(N)=O [Example 76, 4-[(2-methylbenzyl)amino]-6-[(4-morpholinophenyl)amino]pyridine-3-carboxyamide]	63%	
NC(=O)c1cnc(Nc2ccc(N3CCOCC3)cc2)cc1NCc1cc(F)ccc1F [Example 93, 4-[(2,5-difluorobenzyl)amino]-6-[(4-morpholinophenyl)amino]pyridine-3-carboxyamide]	86%	
NC(=O)c1cnc(Nc2ccc(N3CCC(O)CC3)cc2)cc1NCc1ccccc1Cl [Example 186, 4-[(2-chlorobenzyl)amino]-6-{[4-(4-hydroxypiperidino)phenyl]amino}pyridine-3-carboxyamide]	93%	
CCN(CC)CC(=O)N1CCN(c2ccc(Nc3cc(NCc4ccccc4)c(C(N)=O)cn3)cc2)CC1 [Example 274, 4-(benzylamino)-6-({4-[4-(N,N-diethylglycyl)piperazin-1-yl]phenyl}amino)pyridine-3-carboxyamide]	79%	
CS(=O)(=O)NCCCc1ccc(Nc2cc(NCc3cc(F)cc(F)c3)c(C(N)=O)cn2)cc1 [Example 202]		Inhibition rate (%) of JAK3 kinase activity (test compound at 0.1 μM): 88%
N#CCC(=O)N1CCN(c2cccc(Nc3cc(NCc4cc(F)cc(F)c4)c(C(N)=O)cn3)c2)CC1 [Example 267, 6-({3-[4-(cyanoacetyl)piperazin-1-yl]phenyl}amino)-4-[(3,5-difluorodibenzyl)amino]pyridine-3-carboxyamide]	72%	
CCCS(=O)(=O)Nc1ccc(Nc2cc(NCc3cc(F)cc(F)c3)c(C(N)=O)cn2)cc1 [Example 162, 4-[(3,5-difluorobenzyl)amino]-6-({4-[(propylsulfonyl)amino]phenyl}amino)pyridine-3-carboxyamide]	72%	
CCN(CC)CC(=O)N1CCC(c2ccc(Nc3cc(NCc4ccccc4)c(C(N)=O)cn3)cc2)CC1 [Example 277, 4-(benzylamino)-6-({4-[1-(N,N-diethylglycyl)piperidin-4-yl]phenyl}amino)pyridine-3-carboxyamide]	70%	
NC(=O)c1cnc(Nc2ccc(CN3CCOCC3)cc2)cc1NCc1ccccc1 [Example 318, 4-(benzylamino)-6-{[4-(morpholinomethyl)phenyl]amino}pyridine-3-carboxyamide]	83%	
NC(=O)c1cnc(Nc2ccc(N)cc2)cc1NCc1ccccc1 [Example 65, 6-[(4-aminophenyl)amino]-4-(benzylamino) pyridine-3-carboxyamide]	79%	

Compound	inhibition at 0.1 µM	other results
COCCNc1ccc(Nc2cc(NCc3cc(F)cc(F)c3)c(C(N)=O)cn2)cc1 [Example 233, 4-[(3,5-difluorobenzyl)amino]-6-({4-[(2-methoxyethyl)amino]phenyl}amino)pyridine-3-carboxyamide]	74%	
NC(=O)c1cnc(Nc2ccc(N3CCNCC3)cc2)cc1NCc1ccccc1 [Example 219]	65%	
CS(=O)(=O)N1CCN(c2ccc(Nc3cc(NCc4cccc(F)c4F)c(C(N)=O)cn3)cc2)CC1 [Example 292, 4-[(2,3-difluorobenzyl)amino]-6-({4-[4-(methylsulfonyl)piperazin-1-yl]phenyl}amino)pyridine-3-carboxyamide]	84%	
C[C@H]1COCCN1c1ccc(Nc2cc(NCc3ccccc3)c(C(N)=O)cn2)cc1 [Example 134, 4-(benzylamino)-6-({4-[(3S)-3-methylmorpholino]phenyl}amino)pyridine-3-carboxyamide]	83%	
NC(=O)c1cnc(Nc2ccc(NCCN3CCOCC3)cc2)cc1NCc1ccccc1 [Example 70, 4-(benzylamino)-6-({4-[(2-morpholinoethyl)amino]phenyl}amino)pyridine-3-carboxyamide]	75%	
NC(=O)c1cnc(Nc2ccc(N3CCCS3(=O)=O)cc2)cc1NCc1ccccc1 [Example 307, 4-(benzylamino)-6-{[4-(1,1-dioxo-1,2-thiazolidin-2-yl)phenyl]amino}pyridine-3-carboxyamide]	71%	
CCN(CC)CCC1CCN(c2ccc(Nc3cc(NCc4ccccc4)c(C(N)=O)cn3)cc2)CC1 [Example 59, 4-(benzylamino)-6-[(4-{4-[2-(diethylamino)ethyl]piperidino}phenyl)amino]pyridine-3-carboxyamide]	76%	
COc1ccccc1CNc1cc(Nc2ccc(N3CCN(C(C)C)CC3)cc2)ncc1C(N)=O [Example 147, 4-[(2-methoxybenzyl)amino]-6-({4-[4-(propan-2-yl)piperazin-1-yl]phenyl}amino)pyridine-3-carboxyamide]	58%	
CCN(CC)CCS(=O)(=O)Nc1ccc(Nc2cc(NCc3cc(F)cc(F)c3)c(C(N)=O)cn2)cc1 [Example 304, 6-{[4-({[2-(diethylamino)ethyl]sulfonyl}amino)phenyl]amino}-4-[(3,5-difluorobenzyl)amino]pyridine-3-carboxyamide]	78%	
CN(CCN1CCOCC1)c1ccc(Nc2cc(NCc3ccccc3)c(C(N)=O)cn2)cc1 [Example 71, 4-(benzylamino)-6-({4-[methyl(2-morpholinoethyl)amino]phenyl}amino)pyridine-3-carboxyamide]	70%	
CS(=O)(=O)N1CCN(c2ccc(Nc3cc(NC4CCCCC4)c(C(N)=O)cn3)cc2)CC1 [Example 346, 4-cyclohexylamino-6-({4-[4-(methylsulfonyl)piperazin-1-yl]phenyl}amino)pyridine-3-carboxyamide]		inhibition at 1 µM: 72%
NC(=O)c1cnc(Nc2ccc(N3CCC(CCO)CC3)cc2)cc1NCc1ccccc1 [Example 57, 4-(benzylamino)-6-({4-[4-(2-hydroxyethyl)piperidino]phenyl}amino)pyridine-3-carboxyamide]	89%	
N#CCCC1CCN(c2ccc(Nc3cc(NCc4ccccc4)c(C(N)=O)cn3)cc2)CC1 [Example 60, 4-(benzylamino)-6-({4-[4-(2-cyanoethyl)piperidino]phenyl}amino)pyridine-3-carboxyamide]	65%	
CC(C)S(=O)(=O)Nc1ccc(Nc2cc(NCc3ccccc3)c(C(N)=O)cn2)cc1 [Example 163, 4-(benzylamino)-6-({4-[(propan-2-ylsulfonyl)amino]phenyl}amino)pyridine-3-carboxyamide]	77%	
NC(=O)c1cnc(Nc2ccc(N3CCOCC3)cc2)cc1NCc1ccccc1 [Example 72, 4-(benzylamino)-6-{(4-morpholinophenyl)amino]pyridine-3-carboxyamide]	65%	
C[C@@H]1CN(c2ccc(Nc3cc(NCc4ccccc4)c(C(N)=O)cn3)cc2)C[C@H](C)N1 [Example 136, 4-(benzylamino)-6-({4-[(3R,5S)-3,5-dimethylpiperazin-1-yl]phenyl}amino)pyridine-3-carboxyamide]	80%	
NC(=O)c1cnc(Nc2ccc(C(=O)C(F)(F)F)cc2)cc1NCc1cc(F)cc(F)c1 [Example 326, 4-[(3,5-difluorobenzyl)amino]-6-{[(4-trifluoroacetyl)phenyl]amino}pyridine-3-carboxyamide]	71%	
CCN(CC)CC(=O)N1CCN(c2ccc(Nc3cc(NCc4cc(F)cc(F)c4)c(C(N)=O)cn3)cc2)CC1 [Example 275, 6-({4-[4-(N,N-diethylglycyl)piperazin-1-yl]phenyl}amino)-4-[(3,5-difluorobenzyl)amino]pyridine-3-carboxyamide]	96%	
NC(=O)c1cnc(Nc2ccc(N3CCOCC3)cc2)cc1NC1CCCCC1 [Example 345, 4-cyclohexylamino-6-[(4-morpholinophenyl)amino]pyridine-3-carboxyamide]		inhibition at 1 µM: 79%
